Structures are written as SMILES.

These results are taken from article PMC4191062, “Development of αGlcN(1↔1)αMan-Based Lipid A Mimetics as a Novel Class of Potent Toll-like Receptor 4 Agonists” (Journal of Medicinal Chemistry, 2014).

The test relates to bone marrow-derived macrophages (BMDM). Put plainly: TNF-α and IL-6 production in mouse bone marrow-derived macrophages (ELISA). The class given is cell-based, C57BL/6J mice. The conditions noted are these: mBMDM, 1 nM (1.8 ng/mL), 16 h. The procedure: The ability of Lipid A mimetics 1–3 to induce the production of TNF-α and IL-6 from bone marrow-derived macrophages (BMDM) in mice was subsequently examined and compared to that of synthetic E. coli Lipid A and E. coli MPLA, which are reliable positive controls due to their chemical purity and homogeneity (Figure 6). […] Likewise, 1 nM (1.8 ng/mL) of 1 or 2 triggered the release of a 3-fold higher amount of IL-6 (1500 pg/mL) compared to Lipid A (500 pg/mL).
Bone-marrow-derived microphages (BMDMs) were isolated and differentiated from the bone marrow of C57BL/6J mice. The bone marrow was flushed from femur and fibia with RPMI media. The erythrocytes were lysed with 0.88% ammonium chloride, 15 min at 37 °C. A single-cell suspension of the bone marrow cells was then seeded in cell culture flasks at a concentration of 1 × 10^6 cells/mL in RPMI supplemented with 20% FBS and 40 ng/mL recombinant M-CSF. The cell culture medium was changed on day 3. On day 6, the differentiated cells were trypsinized, counted, and seeded in 24-well plates at a concentration of 1 × 10^6 cells/mL in RPMI supplemented with 10% FBS. After 24 h, the cells were stimulated with Lipid A mimetics 1–3 and with synthetic E. coli Lipid A/MPLA (E. coli O111:B4 LPS was used as positive control) for 16 h. The nanomolar concentrations of 1–3 were calculated according to the MW of the synthetic compounds. The supernatants were then tested for cytokines using Ready-Set-Go ELISA kits (eBioscience).

Molecule `CCCCCCCCCCCCCC(=O)O[C@H](CCCCCCCCCCC)CC(=O)N[C@H]1[C@H](OC[C@H]2O[C@H](OP(=O)(O)O)[C@H](NC(=O)C[C@H](O)CCCCCCCCCCC)[C@@H](OC(=O)C[C@H](O)CCCCCCCCCCC)[C@@H]2O)O[C@H](CO)[C@@H](OP(=O)(O)O)[C@@H]1OC(=O)C[C@@H](CCCCCCCCCCC)OC(=O)CCCCCCCCCCCCC` [Lipid A] gave an IL-6 release of 500 pg/mL.
